Results: patent publication EP2420245A1, “Therapeutic use of agonists or antagonists of bradykinin receptor 1 or 2, for modulation collateral blood vessel growth” (MAX-DELBRÜCK-CENTRUM FÜR MOLEKULARE MEDIZIN, priority 2010, dated 2012)

How the values were obtained:
[1] = relative to the natural ligand Lys-desArg-bradykinin; cited from earlier work
[2] = system: 3-vessel occlusion (3-VO) cerebral arteriogenesis model in rat; experiment: 3-vessel occlusion (3-VO) cerebral arteriogenesis model: collateral growth / diameter of the posterior cerebral artery (postmortem latex perfusion); type: in vivo; conditions: rat 3-VO model, antagonist treatment, 3 weeks post 3-VO (Figure 5)
Protocol: Pharmacological modulation of arteriogenesis was analysed using a 3 vessel occlusion (3-VO) model for cerebral arteriogenesis in the rat (Occlusion of both vertebral arteries and one carotid artery). Upon occlusion of three of four blood-supplying arteries to the brain, blood flow is redistributed by the recruitment of collateral pathways such as the posterior cerebral artery to supply the hypoperfusion area with blood. The 3-VO model in the rat has been established since 2003 and is acknowledged as a hypoperfusion model for testing cerebral arteriogenesis (Busch, Buschmann et al. 2003). By using the 3-VO model, relevant therapeutic stimulation of arteriogenesis was shown for instance by the application of GM-CSF (Buschmann, Circulation 2003).
Either by inhibition or stimulation of the bradykinin receptor signalling pathways, arteriogenesis was determined and physiological parameters of the brain were tested.
The characterisation of arteriogenesis was carried out via measurement of the artery or blood vessel diameter (posterior cerebral artery - PCA) in addition to via a measurement of the cerebrovascular reactivity (perfusion reserves in the brain). Cerebrovascular anatomy was studied after maximal vasodilation by a modification of the postmortem latex perfusion method of Maeda et al (Maeda, Hata et al. 1998) .

Compound	susceptibility toward proteolysis [1]	arteriogenesis (collateral growth) [2]
CNCC(=O)N[C@@H](CCCNC(=N)N)C(=O)N1CCC[C@H]1C(=O)N1CCC[C@H]1C(=O)NCC(=O)N[C@@H](Cc1ccccc1)C(=O)N[C@@H](CO)C(=O)N1CCC[C@H]1C(=O)N[C@H](Cc1ccccc1)C(=O)O [R838, Sar-[D-Phe]des-Arg^9-bradykinin]	lower	–
(Des-Arg^9, Leu^8)-bradykinin [H1960]	–	inhibited
